Assay results from article PMC10683025, “Discovery of a Hydroxylamine-Based Brain-Penetrant EGFR Inhibitor for Metastatic Non-Small-Cell Lung Cancer” (Journal of Medicinal Chemistry, 2023).
“Also recorded” adds a separate entry of the source. Like-named read-outs stand apart in the source and are kept apart here.

Tests used:
BRSK2 = molecular target: T1, BRSK2 (Homo sapiens, UniProt Q8IWQ3); experiment: KINOMEScan; format: binding; settings: BRSK2, 1 µM; read-out: Percent Control
T1 construct: purchased Eurofins DiscoverX (KINOMEscan)
From the text: (§2) Percent control was mapped onto the kinome tree using TREEspot.

CYP2C9 = molecular target: T2, CYP2C9 (Homo sapiens, UniProt P11712); format: in vitro ADME; settings: liver microsomes
T2 construct: tissue BD Gentest; host or cells: pooled human liver microsomes
T2 sequence (P11712 whole entry): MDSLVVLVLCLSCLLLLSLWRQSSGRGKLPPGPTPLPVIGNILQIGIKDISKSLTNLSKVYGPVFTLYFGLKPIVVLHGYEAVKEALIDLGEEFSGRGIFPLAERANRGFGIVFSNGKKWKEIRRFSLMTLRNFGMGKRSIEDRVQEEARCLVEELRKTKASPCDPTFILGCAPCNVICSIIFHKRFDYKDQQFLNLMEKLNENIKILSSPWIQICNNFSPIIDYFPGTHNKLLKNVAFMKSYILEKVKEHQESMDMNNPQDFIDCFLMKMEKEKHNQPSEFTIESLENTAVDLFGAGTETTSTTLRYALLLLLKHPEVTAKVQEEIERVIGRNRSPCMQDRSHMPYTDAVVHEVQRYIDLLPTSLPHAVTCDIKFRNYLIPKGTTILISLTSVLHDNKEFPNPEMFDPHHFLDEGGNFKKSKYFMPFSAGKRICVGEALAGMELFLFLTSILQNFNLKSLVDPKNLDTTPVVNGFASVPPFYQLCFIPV
Experimental: The activities tested were CYP1A2-mediated phenacetin O-demethylation, CYP2C19-mediated (S)-mephenyotin 4′-hydroxylation, CYP2C9-mediated diclofenac 4′-hydroxylation, CYP2D6-mediated dextromethorphan O-demethylation, and CYP3A4-mediated midazolam 1′-hydroxylation. […] The reactions were initiated by adding NADPH (1 mM final concentration) after a 5 min preincubation, and the assay was run in duplicate (n = 2). Samples were analyzed by ultra-performance liquid chromatography tandem mass spectrometry (UPLC-MS/MS).

BRSK1 = molecular target: T3, BRSK1 (Homo sapiens, UniProt Q8TDC3); experiment: KINOMEScan; format: binding; settings: BRSK1, 1 µM; read-out: Percent Control
T3 construct: purchased Eurofins DiscoverX (KINOMEscan)
From the text: as §2

CYP2D6 = CYP2D6 (Homo sapiens, UniProt P10635); experiment: CYP2D6 time-dependent inhibition in human liver microsomes; settings: for Inhibition percentage(%) at Top conc. / IC50: liver microsomes; for IC50: read-out: CYP2D6 IC50
Chain of CYP2D6 (P10635 whole entry): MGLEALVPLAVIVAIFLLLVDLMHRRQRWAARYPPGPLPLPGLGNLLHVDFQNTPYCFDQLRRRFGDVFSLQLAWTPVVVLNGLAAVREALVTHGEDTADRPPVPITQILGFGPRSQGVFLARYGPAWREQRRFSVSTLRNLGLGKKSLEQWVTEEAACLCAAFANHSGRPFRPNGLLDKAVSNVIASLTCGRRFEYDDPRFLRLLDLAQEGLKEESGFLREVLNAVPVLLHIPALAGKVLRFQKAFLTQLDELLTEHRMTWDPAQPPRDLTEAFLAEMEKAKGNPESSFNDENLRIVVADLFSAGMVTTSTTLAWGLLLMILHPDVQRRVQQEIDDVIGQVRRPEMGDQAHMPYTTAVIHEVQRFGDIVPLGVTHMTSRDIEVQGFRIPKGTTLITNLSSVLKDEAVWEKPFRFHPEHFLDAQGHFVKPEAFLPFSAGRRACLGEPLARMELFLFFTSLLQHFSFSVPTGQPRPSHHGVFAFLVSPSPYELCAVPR

ACVR2A = molecular target: T4, ACVR2A (Homo sapiens, UniProt P27037); experiment: KINOMEScan; format: binding; settings: read-out: Percent Control
T4 construct: purchased Eurofins DiscoverX (KINOMEscan)
T4 sequence (P27037 20-513): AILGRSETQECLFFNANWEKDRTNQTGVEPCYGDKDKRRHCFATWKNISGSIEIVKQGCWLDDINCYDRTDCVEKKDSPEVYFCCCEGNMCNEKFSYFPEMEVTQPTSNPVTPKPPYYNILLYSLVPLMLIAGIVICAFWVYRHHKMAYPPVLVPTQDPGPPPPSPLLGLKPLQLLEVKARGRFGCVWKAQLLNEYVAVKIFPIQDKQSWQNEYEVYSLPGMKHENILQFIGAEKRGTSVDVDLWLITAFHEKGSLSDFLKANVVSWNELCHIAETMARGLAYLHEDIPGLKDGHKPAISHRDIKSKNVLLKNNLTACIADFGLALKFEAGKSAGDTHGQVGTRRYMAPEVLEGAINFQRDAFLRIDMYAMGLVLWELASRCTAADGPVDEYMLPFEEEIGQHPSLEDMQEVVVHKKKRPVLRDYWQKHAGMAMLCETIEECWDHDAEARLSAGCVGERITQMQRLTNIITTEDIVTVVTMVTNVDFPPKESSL
From the text: as §2

YANK2 = molecular target: T5, YANK2 (Homo sapiens, UniProt Q9NY57); experiment: KINOMEScan; format: binding; settings: YANK2, 1 µM; read-out: Percent Control
T5 construct: purchased Eurofins DiscoverX (KINOMEScan service)
T5 sequence (Q9NY57 whole entry): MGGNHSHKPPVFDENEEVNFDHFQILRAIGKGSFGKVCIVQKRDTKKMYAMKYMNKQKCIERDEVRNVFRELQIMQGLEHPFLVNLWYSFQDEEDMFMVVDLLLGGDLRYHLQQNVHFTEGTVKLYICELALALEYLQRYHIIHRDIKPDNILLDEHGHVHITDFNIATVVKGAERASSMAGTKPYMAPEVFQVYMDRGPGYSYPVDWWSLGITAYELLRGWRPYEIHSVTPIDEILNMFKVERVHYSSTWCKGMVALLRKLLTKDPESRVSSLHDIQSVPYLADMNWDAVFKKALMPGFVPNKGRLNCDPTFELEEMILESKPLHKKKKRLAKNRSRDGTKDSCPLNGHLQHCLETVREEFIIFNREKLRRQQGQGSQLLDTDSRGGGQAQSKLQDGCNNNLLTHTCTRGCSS
From the text: as §2

WEE2 = molecular target: T6, WEE2 (Homo sapiens, UniProt P0C1S8); experiment: KINOMEScan; format: binding; settings: WEE2, 1 µM; read-out: Percent Control
T6 construct: purchased Eurofins DiscoverX
T6 sequence (P0C1S8 whole entry): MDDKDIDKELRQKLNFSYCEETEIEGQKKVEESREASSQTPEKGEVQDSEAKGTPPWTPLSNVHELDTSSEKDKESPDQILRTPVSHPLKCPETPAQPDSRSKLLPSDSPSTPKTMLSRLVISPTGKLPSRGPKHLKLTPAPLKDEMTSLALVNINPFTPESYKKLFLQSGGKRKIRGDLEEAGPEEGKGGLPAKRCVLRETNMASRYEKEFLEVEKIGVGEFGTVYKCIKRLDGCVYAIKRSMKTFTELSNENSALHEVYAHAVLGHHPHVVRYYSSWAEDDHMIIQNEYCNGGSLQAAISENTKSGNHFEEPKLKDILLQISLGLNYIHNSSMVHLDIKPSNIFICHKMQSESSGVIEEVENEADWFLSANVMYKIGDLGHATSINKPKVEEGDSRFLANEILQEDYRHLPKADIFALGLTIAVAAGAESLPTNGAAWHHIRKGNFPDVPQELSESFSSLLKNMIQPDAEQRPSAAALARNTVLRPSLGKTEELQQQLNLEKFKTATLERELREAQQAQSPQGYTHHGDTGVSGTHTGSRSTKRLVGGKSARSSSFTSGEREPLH
From the text: as §2

BCR-ABLwt = BCR-ABLwt (Homo sapiens, UniProt P00519); experiment: KinaseProfiler enzymatic radiometric assay; format: biochemical; settings: read-out: Kinase IC50
Chain of BCR-ABLwt (P00519 27-1130): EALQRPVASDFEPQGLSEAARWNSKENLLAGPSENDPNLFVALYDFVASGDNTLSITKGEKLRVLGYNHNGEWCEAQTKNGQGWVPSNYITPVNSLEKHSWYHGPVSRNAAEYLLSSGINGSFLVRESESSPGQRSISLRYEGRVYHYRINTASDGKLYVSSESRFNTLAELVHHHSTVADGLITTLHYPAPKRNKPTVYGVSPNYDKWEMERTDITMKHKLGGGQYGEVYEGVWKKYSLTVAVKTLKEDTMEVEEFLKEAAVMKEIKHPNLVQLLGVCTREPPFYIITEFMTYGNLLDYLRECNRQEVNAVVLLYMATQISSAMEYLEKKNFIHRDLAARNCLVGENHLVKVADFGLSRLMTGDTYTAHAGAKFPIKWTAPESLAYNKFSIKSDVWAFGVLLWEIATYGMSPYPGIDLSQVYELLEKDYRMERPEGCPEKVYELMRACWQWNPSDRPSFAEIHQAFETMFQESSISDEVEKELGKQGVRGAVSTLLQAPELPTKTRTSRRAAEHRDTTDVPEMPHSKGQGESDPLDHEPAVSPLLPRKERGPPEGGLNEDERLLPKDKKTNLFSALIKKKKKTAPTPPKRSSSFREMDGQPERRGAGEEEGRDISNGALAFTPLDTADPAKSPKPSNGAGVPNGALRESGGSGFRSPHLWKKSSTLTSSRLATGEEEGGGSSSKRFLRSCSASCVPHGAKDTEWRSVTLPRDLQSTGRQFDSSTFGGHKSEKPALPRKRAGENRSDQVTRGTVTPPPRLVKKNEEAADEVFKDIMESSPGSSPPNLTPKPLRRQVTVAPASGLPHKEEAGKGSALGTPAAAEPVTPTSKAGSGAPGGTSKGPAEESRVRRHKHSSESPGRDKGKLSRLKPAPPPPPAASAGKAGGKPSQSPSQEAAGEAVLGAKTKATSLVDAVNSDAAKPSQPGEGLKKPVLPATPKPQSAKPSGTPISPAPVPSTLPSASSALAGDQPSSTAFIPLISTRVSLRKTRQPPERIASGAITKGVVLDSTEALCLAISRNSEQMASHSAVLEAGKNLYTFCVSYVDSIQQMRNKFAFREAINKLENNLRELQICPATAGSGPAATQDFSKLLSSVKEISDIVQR
Experimental: (§1) In vitro kinase activity (inhibitor binding constants (Kd) and biochemical inhibition (IC50’s)) were assessed by Eurofins DiscoverX (Kd determinations) and Eurofins Cerep (biochemical IC50 determinations).

ERBB4 = molecular target: T7, ERBB4 (Homo sapiens, UniProt Q15303); experiment: KinaseProfiler enzymatic radiometric assay; format: biochemical; settings: read-out: Kinase IC50
T7 construct: purchased Eurofins Cerep (KinaseProfiler, contract assay)
Experimental: as §1

ERBB2 = molecular target: T8, ERBB2 (Homo sapiens, UniProt P04626); experiment: KinaseProfiler enzymatic radiometric assay; format: biochemical; settings: read-out: Kinase IC50
T8 construct: purchased Eurofins DiscoverX (contract assay)
Experimental: as §1

DRAK1 = molecular target: T9, DRAK1 (Homo sapiens, UniProt Q9UEE5); experiment: KinaseProfiler enzymatic radiometric assay; format: biochemical; settings: read-out: Kinase IC50
T9 construct: purchased Eurofins DiscoverX (contract assay)
T9 sequence (Q9UEE5 1-414): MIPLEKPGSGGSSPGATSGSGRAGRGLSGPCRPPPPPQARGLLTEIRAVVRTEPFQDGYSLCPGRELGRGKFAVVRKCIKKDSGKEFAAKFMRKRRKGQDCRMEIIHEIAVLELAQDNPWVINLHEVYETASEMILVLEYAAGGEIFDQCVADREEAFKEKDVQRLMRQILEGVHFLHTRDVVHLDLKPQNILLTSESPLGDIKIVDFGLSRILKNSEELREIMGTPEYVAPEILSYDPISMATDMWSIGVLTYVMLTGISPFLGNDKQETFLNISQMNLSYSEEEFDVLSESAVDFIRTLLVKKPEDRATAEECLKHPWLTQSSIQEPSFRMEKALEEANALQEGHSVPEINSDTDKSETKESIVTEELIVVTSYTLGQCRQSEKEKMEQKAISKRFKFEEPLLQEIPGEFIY
Experimental: as §1

LYN = molecular target: T10, LYN (Homo sapiens, UniProt P07948); experiment: KinaseProfiler enzymatic radiometric assay; format: biochemical; settings: read-out: Kinase IC50
T10 construct: purchased Eurofins DiscoverX (contract assay)
T10 sequence (P07948 whole entry): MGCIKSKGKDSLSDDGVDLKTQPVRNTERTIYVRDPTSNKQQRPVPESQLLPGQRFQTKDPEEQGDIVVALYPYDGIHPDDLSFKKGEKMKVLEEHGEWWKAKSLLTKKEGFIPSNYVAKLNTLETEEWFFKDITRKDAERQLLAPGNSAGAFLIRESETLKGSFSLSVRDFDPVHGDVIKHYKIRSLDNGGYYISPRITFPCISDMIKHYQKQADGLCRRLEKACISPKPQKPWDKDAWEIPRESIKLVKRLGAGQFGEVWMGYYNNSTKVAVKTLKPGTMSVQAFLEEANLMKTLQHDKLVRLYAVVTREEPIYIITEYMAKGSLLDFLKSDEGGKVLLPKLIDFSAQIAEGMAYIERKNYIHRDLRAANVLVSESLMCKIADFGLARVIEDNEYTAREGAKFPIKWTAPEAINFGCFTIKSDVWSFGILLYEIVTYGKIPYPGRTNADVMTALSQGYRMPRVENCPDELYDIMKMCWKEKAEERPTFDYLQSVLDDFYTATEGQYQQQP
Experimental: as §1

panel of 468 kinases = experiment: KINOMEScan selectivity scores
From the text: as §2

AURKC = molecular target: T11, AURKC (Homo sapiens, UniProt Q9UQB9); experiment: KINOMEScan; format: binding; settings: read-out: Percent Control
T11 construct: purchased Eurofins DiscoverX (KINOMEscan)
T11 sequence (Q9UQB9 whole entry): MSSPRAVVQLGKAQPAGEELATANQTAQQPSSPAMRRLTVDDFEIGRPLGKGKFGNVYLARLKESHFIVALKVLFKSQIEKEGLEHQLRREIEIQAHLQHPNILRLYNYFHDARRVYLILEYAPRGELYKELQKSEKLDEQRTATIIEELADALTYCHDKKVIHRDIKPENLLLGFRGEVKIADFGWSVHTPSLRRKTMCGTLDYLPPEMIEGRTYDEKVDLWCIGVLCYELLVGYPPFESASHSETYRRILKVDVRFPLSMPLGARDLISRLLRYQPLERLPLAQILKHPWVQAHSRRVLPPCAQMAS

AMPK-alpha2 = molecular target: T12, AMPK-alpha2 (Homo sapiens, UniProt P54646); experiment: KINOMEScan; format: binding; settings: AMPK-alpha2, 1 µM; read-out: Percent Control
T12 construct: purchased Eurofins DiscoverX (KINOMEscan)
T12 sequence (P54646 whole entry): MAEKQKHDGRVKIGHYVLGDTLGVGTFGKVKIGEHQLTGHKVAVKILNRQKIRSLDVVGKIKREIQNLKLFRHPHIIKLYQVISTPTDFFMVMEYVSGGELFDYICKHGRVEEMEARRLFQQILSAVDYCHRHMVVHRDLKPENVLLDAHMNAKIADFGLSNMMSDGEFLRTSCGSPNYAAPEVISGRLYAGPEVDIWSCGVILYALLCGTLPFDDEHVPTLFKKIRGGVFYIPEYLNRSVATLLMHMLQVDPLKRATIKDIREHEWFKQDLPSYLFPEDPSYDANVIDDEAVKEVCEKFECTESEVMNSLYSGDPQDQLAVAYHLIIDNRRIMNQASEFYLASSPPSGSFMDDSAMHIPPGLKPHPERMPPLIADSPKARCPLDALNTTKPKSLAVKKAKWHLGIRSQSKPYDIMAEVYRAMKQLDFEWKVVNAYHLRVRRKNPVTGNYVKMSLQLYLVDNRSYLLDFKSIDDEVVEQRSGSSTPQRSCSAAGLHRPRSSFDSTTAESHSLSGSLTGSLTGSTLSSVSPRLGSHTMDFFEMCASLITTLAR
From the text: as §2

WNK1 = molecular target: T13, WNK1 (Homo sapiens, UniProt Q9H4A3); experiment: KINOMEScan; format: binding; settings: WNK1, 1 µM; read-out: Percent Control
T13 construct: purchased Eurofins DiscoverX
From the text: as §2

[1] = Metabolic stability in hepatocytes; format: in vitro ADME, beagle dog; settings: for Remaining Percentages: dog hepatocytes
Experimental: Hepatocyte stability was assessed in duplicate (n = 2) at a working cell density of 0.5 × 10^6 cells/mL with hepatocytes from human (BiolVT), Sprague-Dawley rat (BiolVT), cynomolgus monkey (RILD) or beagle dog (BiolVT). […] The in vitro half-life and intrinsic clearances were determined as previously described.[76]
In vitro half-life (in vitro t1/2) was determined from the slope value in [drawing 1] where k was determined by linear regression of the natural logarithm of the remaining percentage of the parent drug vs the incubation time curve.

AAK1 = molecular target: T14, AAK1 (Homo sapiens, UniProt Q2M2I8); experiment: KINOMEScan; format: binding; settings: AAK1, 1 µM; read-out: Percent Control
T14 construct: purchased Eurofins DiscoverX
From the text: as §2

ASK2 = molecular target: T15, ASK2 (Homo sapiens, UniProt O95382); experiment: KINOMEScan; format: binding; settings: ASK2, 1 µM; read-out: Percent Control
T15 construct: purchased Eurofins DiscoverX (KINOMEscan)

BMPR2 = molecular target: T16, BMPR2 (Homo sapiens, UniProt Q13873); experiment: KINOMEScan; format: binding; settings: BMPR2, 1 µM; read-out: Percent Control
T16 construct: purchased Eurofins DiscoverX (KINOMEscan)
From the text: as §2

ACVR2B = molecular target: T17, ACVR2B (Homo sapiens, UniProt Q13705); experiment: KINOMEScan; format: binding; settings: read-out: Percent Control
T17 construct: purchased Eurofins DiscoverX (KINOMEscan)
From the text: as §2

[2] = In vitro metabolite identification; format: in vitro ADME; settings: rat hepatocytes, 10 μM
ALK = molecular target: T18, ALK (Homo sapiens, UniProt Q9UM73); experiment: KINOMEScan; format: binding; settings: read-out: Percent Control
T18 construct: purchased Eurofins DiscoverX (KINOMEscan)
From the text: as §2

BRAF = molecular target: T19, BRAF (Homo sapiens, UniProt P15056); experiment: KINOMEScan; format: binding; settings: read-out: Percent Control
T19 construct: purchased Eurofins DiscoverX (KINOMEscan)
From the text: as §2

In the case of `COc1cc2ncnc(Nc3cccc(Cl)c3F)c2cc1OCCON1CCN(C)CC1` [Compound 9, N-(3-Chloro-2-fluorophenyl)-7-methoxy-6-(2-((4-methylpiperazin-1-yl)oxy)ethoxy)quinazolin-4-amine], the remaining binding at 1 µM (BRSK2) is reported as 74%, the IC50 (CYP2C9) is reported as > 30 µM and the remaining binding at 1 µM (BRSK1) is reported as 100%. The “CYP 2D6 TDI” value (CYP2D6; IC50-shift, human liver microsomes and primary human hepatocytes) was “Negative; also recorded: not to be time-dependent”, the “Inhibition percentage(%) at Top conc.” value (CYP2D6; 0 min) was 78.15% and the “Inhibition percentage(%) at Top conc.” value (CYP2D6; 30 min with NADPH) was 74.73%. For the same compound, the “Inhibition percentage(%) at Top conc.” value (CYP2D6; 30 min without NADPH) was 78.78%, the IC50 (CYP2D6; 30 min with NADPH) was 1.82 µM and the IC50 (CYP2D6; 30 min without NADPH) was 1.16 µM. It also gave an IC50 (CYP2D6; pre-incubation 0 min) of 1.05 µM, a remaining binding at 1 µM (ACVR2A) of 100% and a remaining binding at 1 µM (YANK2) of 93%. It also gave a remaining binding at 1 µM (WEE2) of 100%, an IC50 (BCR-ABLwt) of 0.976 µM and an IC50 (ERBB4) of 0.33 µM. For the same compound, the IC50 (ERBB2) was 0.012 µM, the IC50 (DRAK1) was 1.03 µM and the IC50 (LYN) was 0.058 µM. The “Number of Hits S(1)” value (panel of 468 kinases; percent control < 1, of 403) was 2, the “Number of Hits S(10)” value (panel of 468 kinases; percent control < 10, of 403) was 6 and the “Number of Hits S(35)” value (panel of 468 kinases; percent control < 35, of 403) was 12. It also gave a remaining binding at 1 µM (AURKC) of 82%, a remaining binding at 1 µM (AMPK-alpha2) of 97% and a remaining binding at 1 µM (WNK1) of 100%. For the same compound, the hepatocyte CLint at 2 h, 1 µM ([1]; beagle, dog, hepatocytes) was 13 µL/min/1e6 cells, the “Remaining Percentages” value ([1]; 15 min) was 88.01% and the “Remaining Percentages” value ([1]; 30 min) was 79.61%. For the same compound, the “Remaining Percentages” value ([1]; 60 min) was 68.74%, the “Remaining Percentages” value ([1]; 90 min) was 60.01% and the “Remaining Percentages” value ([1]; 120 min) was 41.31%. It also gave a remaining binding at 1 µM (AAK1) of 92%, a remaining binding at 1 µM (ASK2) of 85% and a remaining binding at 1 µM (BMPR2) of 99%. For the same compound, the remaining binding at 1 µM (ACVR2B) was 100%, the “share of parent/metabolite after incubation of 9” value [2] was 1.11% and the remaining binding at 1 µM (ALK) was 89%. For the same compound, the remaining binding at 1 µM (BRAF) was 89%.
